The text below walks through data of PubChem BioAssay (NCI).

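Results reflect a 48-hour exposure of cells in 96-well plates to compound at five concentrations. TGI: total growth inhibition.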 Where a SMILES comes first, the peptide text is derived from it. [ ]: non-standard residue; d: D form. The star is where a group is joined. ξ: configuration not given here. Propanoyl(3-(4-MeO-Ph)) = COc1ccc(CCC(=O)*)cc1; Thr(3ξ) = CC(O)[C@H](N)C(=O)O; dNMeL = CN[C@H](CC(C)C)C(=O)O; ξLac = CC(O)C(=O)O

Test systems include EKVX NSCLC; KM12 colon; U251 CNS; MDA-MB-435; NCI-H226 lung; UACC-62 melanoma; ACHN renal; SNB-19 CNS; OVCAR-4 ovarian; HOP-92 NSCLC.
Assay in all cases: NCI tumour cell line growth inhibition, 48 h

In the case of `CC(C)(C)OC(=O)N1Cc2cc(O)ccc2C[C@H]1C(=O)O`, the TGI with EKVX NSCLC, with KM12 colon, with U251 CNS, in the test with MDA-MB-435, in the test with NCI-H226 lung and with UACC-62 melanoma was more than 100 µM throughout. The TGI in the test with ACHN renal, with SNB-19 CNS, in the test with OVCAR-4 ovarian and in the test with HOP-92 NSCLC was more than 100 µM in each case.
With `COc1cc([C@@H]2c3cc4c(cc3[C@@H](N=Cc3ccc(C(=O)O[C@@H](C(=O)O[C@H]5C[C@@]6(O)[C@@H](OC(=O)c7ccccc7)[C@@H]7[C@]8(OC(C)=O)CO[C@@H]8C[C@H](O)[C@@]7(C)C(=O)[C@H](OC(C)=O)C(=C5C)C6(C)C)[C@@H](NC(=O)c5ccccc5)c5ccccc5)cc3)[C@H]3COC(=O)[C@H]23)OCO4)cc(OC)c1O`, the TGI with EKVX NSCLC was more than 47 µM; in the test on KM12 colon it was more than 50 µM; in the test on U251 CNS, more than 16.9 µM; in the test with MDA-MB-435, 0.00867 µM; with UACC-62 melanoma it was more than 50 µM; in the test on ACHN renal, more than 50 µM. The TGI in the test with SNB-19 CNS, in the test with OVCAR-4 ovarian and in the test with HOP-92 NSCLC was more than 50 µM each time.
As for `CC(O)c1cc2c(s1)C(=O)c1scc(C(C)O)c1C2=O` (configuration not stated), the TGI with EKVX NSCLC stood at 2.93 µM; in the test on U251 CNS, 4.07 µM; in the test with MDA-MB-435, 0.455 µM; in the test on NCI-H226 lung, 4.03 µM; with UACC-62 melanoma it was 0.587 µM; with ACHN renal, 2.47 µM. Besides, the TGI with SNB-19 CNS was found to be 1.66 µM; in the test with OVCAR-4 ovarian, 1.73 µM; in the test with HOP-92 NSCLC, 7.07 µM.
As to `COC(=O)C(Cc1ccccc1)NC(=O)c1ccc(CNC(=S)NCc2cccc(CNC(=S)NCc3ccccc3)c2)cc1` (configuration not stated), the TGI with EKVX NSCLC, with KM12 colon, in the test on U251 CNS, with MDA-MB-435, with NCI-H226 lung and in the test on UACC-62 melanoma was more than 62.5 µM throughout. Moreover, the TGI with ACHN renal, in the test on SNB-19 CNS, in the test with OVCAR-4 ovarian and in the test on HOP-92 NSCLC was more than 62.5 µM throughout.
For `COc1cc(/C=c2/c3ccccc3n3c2cc(-c2ccccc2)[n+]3C)cc(OC)c1OC`, the TGI in the test with EKVX NSCLC amounted to 22.4 µM; with KM12 colon, 3.67 µM; in the test on U251 CNS it was 13.6 µM; in the test on MDA-MB-435 it was 6.19 µM; in the test with NCI-H226 lung, 32.8 µM; with UACC-62 melanoma, 10.5 µM. Moreover, the TGI in the test on ACHN renal is 15 µM; in the test with SNB-19 CNS it was 17.9 µM; in the test with OVCAR-4 ovarian, 8.61 µM; with HOP-92 NSCLC, 12.3 µM.
As to `Cc1cc(C)c2c(=N)c3ccccc3n(CCCCCCn3c4ccccc4c(=N)c4c(C)cc(C)nc43)c2n1`, the TGI with EKVX NSCLC amounted to 3.29 µM; with KM12 colon, 0.973 µM; in the test with U251 CNS, 0.387 µM; in the test with MDA-MB-435, 3.3 µM; in the test with NCI-H226 lung, 2.85 µM; with UACC-62 melanoma, 3.26 µM. Besides, the TGI in the test with ACHN renal worked out at 2.91 µM; with SNB-19 CNS, 2.11 µM; in the test with OVCAR-4 ovarian, 3.01 µM; with HOP-92 NSCLC, 2.94 µM.
As to `COc1cc(C2c3cc4c(cc3OC3(OC)COC(=O)C23)OCO4)cc(OC)c1OC` (configuration not stated), the TGI in the test on EKVX NSCLC is more than 72.1 µM; in the test on KM12 colon, 7.68 µM; in the test with U251 CNS it was more than 66.3 µM; in the test on MDA-MB-435 it was 0.68 µM; with NCI-H226 lung, 8.16 µM; in the test with UACC-62 melanoma, more than 20.5 µM. Besides, the TGI in the test with ACHN renal was more than 100 µM; in the test on SNB-19 CNS it was more than 26.6 µM; in the test with OVCAR-4 ovarian, more than 100 µM; in the test with HOP-92 NSCLC, more than 100 µM.
In the case of `COC(=O)[C@@H](NC(=O)[C@@H](CC(C)C)N(C)C(=O)[C@@H]1CCCN1C(=O)C(C)O)C(C)OC(=O)CCc1ccc(OC)cc1` (some centres not stated) (H-[ξLac]P[dNMeL][Thr(3ξ)](Propanoyl(3-(4-MeO-Ph)))-OMe), the TGI in the test on EKVX NSCLC, in the test with KM12 colon, with U251 CNS, with MDA-MB-435, in the test with NCI-H226 lung and in the test on UACC-62 melanoma was more than 100 µM each time. The TGI in the test on ACHN renal, with SNB-19 CNS, in the test with OVCAR-4 ovarian and with HOP-92 NSCLC was more than 100 µM each time.
Consider `Cn1c(N=[N+]=[N-])cc(=O)n(C)c1=O`, for which the TGI in the test with EKVX NSCLC, in the test on KM12 colon, in the test on U251 CNS, in the test on MDA-MB-435, with NCI-H226 lung and with UACC-62 melanoma was more than 100 µM in each case. The TGI in the test on ACHN renal, in the test with SNB-19 CNS, in the test on OVCAR-4 ovarian and in the test on HOP-92 NSCLC was more than 100 µM in each case.
Turning to `COc1ccc(-c2nnc(CCCCCCCCc3nnc(-c4ccc(OC)cc4)n3N)n2N)cc1`, the TGI in the test with EKVX NSCLC, with KM12 colon, in the test on U251 CNS, with MDA-MB-435, with NCI-H226 lung and in the test on UACC-62 melanoma was more than 100 µM each time. For the same compound, the TGI was more than 100 µM with ACHN renal, more than 100 µM in the test on SNB-19 CNS, more than 100 µM in the test with OVCAR-4 ovarian and more than 69.1 µM in the test on HOP-92 NSCLC.
Turning to `COc1ccc(-c2nnc(-c3ccncc3)o2)cc1`, the TGI in the test on EKVX NSCLC, with U251 CNS, in the test on MDA-MB-435, in the test on NCI-H226 lung, in the test with UACC-62 melanoma and with ACHN renal was more than 100 µM each time. For the same compound, the TGI in the test with SNB-19 CNS, in the test with OVCAR-4 ovarian and with HOP-92 NSCLC was more than 100 µM each time.
As to `C=CCCC(On1c(-c2ccc(Cl)cc2)csc1=S)c1ccccc1` (configuration not stated), the TGI with EKVX NSCLC was more than 100 µM; in the test with KM12 colon, more than 100 µM; with U251 CNS it was more than 100 µM; in the test on MDA-MB-435, more than 100 µM; with NCI-H226 lung, 81.8 µM; in the test on UACC-62 melanoma, more than 100 µM. The TGI in the test with ACHN renal, in the test on SNB-19 CNS, in the test with OVCAR-4 ovarian and in the test on HOP-92 NSCLC was more than 100 µM each time.
Turning to `Clc1ccc2nc(CC3CCCC3)[nH]c2c1`, the TGI is 43.5 µM in the test with EKVX NSCLC; 38.8 µM with KM12 colon; 36.5 µM in the test with U251 CNS; 25.9 µM in the test on MDA-MB-435; 38.4 µM in the test on NCI-H226 lung; 33.4 µM in the test on UACC-62 melanoma. Also, the TGI in the test with ACHN renal is 32.6 µM; in the test on SNB-19 CNS it was 64 µM; in the test with OVCAR-4 ovarian, 45.8 µM; in the test on HOP-92 NSCLC, 34 µM.
